The values below come from US20040204341A1, “Nr2b receptor antagonists for the treatment or prevention of migraines” (priority 2001, published 2004).

SMILES strings stand for the structures.

On to `O=C(NCC1CCN(C(=O)OCc2ccccc2)CC1)c1ccc(O)cc1` [Example 1, 4-[(4-Hydroxy-benzoylamino)-methyl]-piperidine-1-carboxylic acid benzyl ester], for which the melting point is 122 to 123 °C.

Broadly, the melting point is the temperature, or range, at which the solid turns liquid.
